Data reported in ChEMBL document CHEMBL1126000, “Synthesis of 2-substituted-1,3,4-thiadiazole-5-sulphonamides as novel water-soluble inhibitors of carbonic anhydrase” (Bioorg Med Chem Lett, 1991).
Converted amounts (≈) assume the structure as drawn. “And” between values parts separate entries of the source, which are not always exact repeats. Equal entries are not always repeated.

Key:
[1] = Solubility in water, at 20 degrees Centigrade.; type: physicochemical
Carbonic anhydrase = Carbonic anhydrase (Bos taurus, UniProt P00921+Q95323+P18915+Q3SZX4)
Description: In vitro concentration that causes 50% inhibition of carbonic anhydrase carbonate hydro-lyase (EC.4.2.1.1) isolated from bovine erythrocyte

| Compound | solubility ([1]; water, read-out: Solubility) [mM] | IC50 (Carbonic anhydrase) | solubility ([1]; buffer) [mM] |
| --- | --- | --- | --- |
| CC(C)COC(=O)Nc1nnc(S(N)(=O)=O)s1 | 103 (≈ 28900 µg/mL) | 550 nM and 570 nM | – |
| Br.C[C@H](N)C(=O)Nc1nnc(S(N)(=O)=O)s1 | 701 | 9 nM | – |
| NS(=O)(=O)c1nnc(NC(=O)CNC(=O)OCc2ccccc2)s1 | < 0.1 | 8 nM | – |
| NCCCCC(=O)Nc1nnc(S(N)(=O)=O)s1 | – | 440 nM and 370 nM | 0.7 (≈ 196 µg/mL) |
| CC(=O)Nc1nnc(S(N)(=O)=O)s1 [ACETAZOLAMIDE] | < 0.1 | – | – |
| Br.NCC(=O)Nc1nnc(S(N)(=O)=O)s1 | 896 | – | – |
| NS(=O)(=O)c1nnc(NC(=O)[C@H](Cc2ccccc2)NC(=O)OCc2ccccc2)s1 | < 0.1 | 5 nM | – |
| C[C@H](NC(=O)OCc1ccccc1)C(=O)Nc1nnc(S(N)(=O)=O)s1 | < 0.1 | 7 nM | – |
| Br.N[C@@H](Cc1ccccc1)C(=O)Nc1nnc(S(N)(=O)=O)s1 | 132 | 30 nM | – |
